Where two headings read alike, the source gives them in different places.
Columns and labels:
[1] = test system: MCF-7 human breast cancer cells; test: MTT cell viability, MCF-7; format: cell-based; conditions: mean ± SD
Protocol: (§1) The six cell lines used in this work (MCF-7, MDA-MB-231, HeLa, […], MCF-10A and Hek-293) were purchased from American Type Culture Collection (ATCC, Manassas, VA, USA). MCF-7 human breast cancer cells, estrogen receptor (ER)-positive, were maintained in Dulbecco’s modified Eagle’s medium/nutrient mixture Ham F-12 (DMEM/F12), supplemented with 10% fetal bovine serum (FBS) and 100 U mL^−1 penicillin/streptomycin. MCF-10A human mammary epithelial cells, were cultured in DMEM/F12 medium, supplemented with 5% horse serum (HS, Thermo Fisher Scientific, Milan, Italy), 100 U mL^−1 penicillin/streptomycin, […] hydrocortisone, 20 ng mL^−1 human epidermal growth factor (hEGF), […] insulin, and […] cholera enterotoxin (Sigma–Aldrich, Milan, Italy). MDA-MB-231 human breast cancer cells, known as triple-negative cells (i.e., not overexpressing human epidermal growth factor receptor 2 (HER2), estrogen and progesterone receptors), were cultured in DMEM/F12 supplemented with 5% FBS, 1% L-glutamine and 100 U mL^−1 penicillin/streptomycin. HeLa human epithelial cervix carcinoma cells, estrogen receptor (ER)-negative, and […] human endometrial adenocarcinoma cells, estrogen receptor (ER)-positive, were maintained in minimum essential Eagle’s Medium (MEM), supplemented with 10% FBS, 1% L-glutamine, 100 U mL^−1 penicillin/streptomycin and 1% Non-Essential Amino Acids (NEAA). Hek-293 human embryonic kidney epithelial cells were cultured in DMEM high glucose (4.5 g L^−1), supplemented with 10% FBS, 1% L-glutamine and 100 U mL^–1 penicillin/streptomycin. Cells were maintained at 37 °C in a humidified atmosphere of 95% air and 5% CO2 and periodically screened for contamination.
(§2) Cell viability has been determined using the 3-(4,5-dimethylthiazol-2-y1)-2,5-diphenyltetrazolium bromide (MTT, Sigma–Aldrich, Milan, Italy) assay. Cells have been seeded on 48-well plates and grown in complete medium. Before being treated, cells have been starved in serum free medium for 24 h for allowing cell cycle synchronization. […] Data are representative of three independent experiments; standard deviations (SD) have been shown.

[2] = test system: Hek-293 human embryonic kidney epithelial cells; test: MTT cell viability, normal Hek-293; format: cell-based; conditions: for IC50: normal cells, MTT, 72 h, mean ± SD, read-out: IC50 Hek-293
Protocol: as §1, §2

[3] = test system: ISHIKAWA human endometrial adenocarcinoma cells; test: MTT cell viability, […]; format: cell-based; conditions: 72 h, mean ± SD
Protocol: as §1, §2

[4] = test system: MCF-10A human mammary epithelial cells; test: MTT cell viability, normal MCF-10A; format: cell-based; conditions: 72 h, mean ± SD
Protocol: as §1, §2

[5] = test system: MDA-MB-231 human breast cancer cells; test: MTT cell viability, MDA-MB-231; format: cell-based; conditions: mean ± SD
Protocol: as §1, §2

[6] = test system: HeLa human epithelial cervix carcinoma cells; test: MTT cell viability, HeLa; format: cell-based; conditions: 72 h, mean ± SD
Protocol: as §1, §2

MDA-MB-231 cells [7] = test: Detection of intracellular ROS (DCF-DA); format: cell-based, human; conditions: fluorescence microscopy
Protocol: We used 2,7-dichlorofluorescin diacetate (DCF-DA) as a fluorometric probe for ROS detection and their production was examined under an inverted fluorescence microscope, as already reported.
Cells were grown on glass coverslips until the treatment with compound or menadione (used as positive control) (Sigma–Aldrich, Milan, Italy). Then, cells were incubated with 10 μM 2′-7′-Dichlorofluorescein diacetate (Sigma–Aldrich, Milan, Italy) for 40 min at 37 °C in a 5% CO2 incubator, as previously described. Then, DAPI (0.2 μg mL^−1) counterstain was performed for 10 min at room temperature, in the dark. Cells were then washed three times with cold PBS, adding one drop of mounting solution, then they were observed and imaged under a fluorescence microscope (Leica DM6000; 20× magnification) with excitation/emission wavelength maxima of 490 nm/515 nm (DCF) or 350 nm/460 nm (DAPI). Images are representative of three independent experiments.
Images were acquired at 20× magnification. […] Fields are representative of three separate experiments.

MDA-MB-231 cells [8] = test: Immunofluorescence of microtubules, MDA-MB-231; format: cell-based, human; conditions: at IC50 value, 24 h
Protocol: (§3) Cells were grown on glass coverslips in full media, then serum-deprived for 24 h and exposed to compounds for 24 h (concentration equal to its IC50 value). Then, the cells after PBS-washed, were fixed with cold methanol (15 min/−20 °C) and incubated with primary antibody, diluted in blocking solution (4 °C/overnight), as previously described. The mouse anti-β-Actin (69879) and the rabbit anti-β tubulin (9104) were purchased from Santa Cruz Biotechnology and used at 1:100 dilution. Coverslips were then washed 3 times with PBS, then fixed cells were incubated with the secondary antibody Alexa Fluor® 568 conjugate goat-anti-mouse and Alexa Fluor® 488 conjugate goat-anti-rabbit (1:500, Thermo Fisher Scientific, Waltham, MA, USA). Nuclei were stained using DAPI (Sigma–Aldrich, Mila, Italy) for 10 min at a concentration of 0.2 μg/mL then washed 3 times with PBS. Fluorescence was detected using a fluorescence microscope (Leica DM 6000). LAS-X software was used to acquire and process all images.
Figure 5 Immunofluorescence studies. […] Panels A: DAPI, excitation/emission wavelength 350 nm/460 nm; panels B: β-tubulin (Alexa Fluor® 488) excitation/emission wavelength 490 nm/515 nm; panels C show a merge. Representative fields are shown.

HeLa cells = test: Immunofluorescence of microtubules, HeLa; format: cell-based, human; conditions: at IC50 value, 24 h
Protocol: as §3
Figure 6 Immunofluorescence studies. HeLa cells were treated with AuL4, Vinblastine, Paclitaxel (used at their IC50 values) or with a vehicle (CTRL) for 24 h. After treatment, the cells were methanol fixed, incubated with primary and secondary antibodies, stained with DAPI and observed and imaged under the inverted fluorescence microscope at 20× magnification (see Materials and methods). […] Panels A: DAPI, excitation/emission wavelength 350 nm/460 nm; panels B: β-tubulin (Alexa Fluor® 488) excitation/emission wavelength 490 nm/515 nm; panels C show a merge. Representative fields are shown.

tubulin = test: In vitro tubulin-polymerization assay (turbidity at 350 nm); format: biochemical; conditions: 10 µM; for final optical density value at 350 nm (OD350): vehicle (DMSO) about 0.43
Protocol: Tubulin-polymerization inihibition was measured using in vitro Tubulin-Polymerization Assay Kit purchased fromEMD Millipore Corporation. Polymerization reactions occur in 70 µL final volumes, of which 60 µL is the 60 µM tubulin in 1 × PB-GTP and 10 µL is the test substance dissolved in 1 × PB-GTP. […] These reactives were combined in 96-well plate on ice. After the plate was transferred into the spectrophotometer pre-warmed at 37 °C and the turbidity variation was measured every 30 s at 350 nm for 90 min. The plate was shaked for 10 s before each measurement. Turbidity (absorbance) readings were used to calculate the extent of polymerization [% inhibition = (1−A350 sample/A350 control) × 100].
Figure 4 Tubulin-polymerization assay. […] Two positive control molecules, Paclitaxel and Vinblastine, were used as tubulin-stabilizing and tubulin-destabilizing agents, respectively. DMSO was used as a negative control. Assembly of tubulin into microtubules was determined by measuring the turbidity at 350 nm for 3600 s at 37 °C. All the compounds were used at a concentration of 10 μM.

Structure (SMILES) | IC50 ([1]; 72 h) [µM] | IC50 [2] [µM] | IC50 [3] [µM] | IC50 [4] [µM] | IC50 ([5]; 72 h) [µM] | IC50 [6] [µM] | also measured
OC(Cn1cc[n+](CC(O)c2ccccc2)[c]1[Ag-][c]1n(CC(O)c2ccccc2)cc[n+]1CC(O)c1ccccc1)c1ccccc1.[I][Ag-][I] (mixture of isomers) [AgL6] | 29.7 ± 0.3 | > 200 | 26.7 ± 0.5 | 143.4 ± 0.8 | 57.9 ± 0.5 | 47.7 ± 0.4 | –
C[n+]1ccn(CC(O)c2ccccc2)[c]1[Ag-][c]1n(CC(O)c2ccccc2)cc[n+]1C.[I][Ag-][I] (racemic) [AgL3] | – | – | – | – | – | – | IC50 MDA-MB-231 ([5]; 72 h): completely inactive
C[n+]1c(Cl)c(Cl)n(CC(O)c2ccccc2)[c]1[Ag-][c]1n(CC(O)c2ccccc2)c(Cl)c(Cl)[n+]1C.[I][Ag-][I] (racemic) [AgL7, bis-[4,5-dichloro-(N-methyl-N’(2-hydroxy-2-phenyl)ethyl-imidazole-2-ylidene]silver(I)]^+[di-iodide-silver]^−] | 10.5 ± 0.8 | > 200 | 6.55 ± 0.9 | > 200 | 3.22 ± 1.2 | 9.76 ± 0.6 | –
C[n+]1ccn(CC(O)c2ccccc2)[c]1[Au-][c]1n(CC(O)c2ccccc2)cc[n+]1C.[Cl][Au-][Cl] (racemic) [AuL3] | – | – | – | – | 3.43 ± 1 | – | –
OCc1ccc(-n2cc[n+](CC(O)c3ccccc3)[c]2[Au-][Br])cc1 (racemic) [AuL5] | 18.2 ± 0.5 | > 200 | 54.9 ± 1 | > 200 | 31.7 ± 0.8 | 44.5 ± 0.9 | –
OCc1ccc(-n2ccn(CC(O)c3ccccc3)[c]2=[Ag][Br])cc1 (stereo not drawn) [AgL5] | > 200 | > 200 | > 200 | > 200 | > 200 | > 200 | –
OC(Cn1ccn(CC(O)c2ccccc2)[c]1=[AuH]=[c]1n(CC(O)c2ccccc2)ccn1CC(O)c1ccccc1)c1ccccc1.[Cl][AuH][Cl] (stereo not drawn) [AuL6] | 9.38 ± 0.2 | > 200 | 12.6 ± 0.3 | 158.8 ± 1 | 53.7 ± 0.7 | 98.6 ± 1.2 | –
N.N.[Cl][Pt][Cl] [Cis-platin, Cisplatin, reference compound] | 35.8 ± 1.3 | 16.8 ± 0.4 | 15.1 ± 0.8 | 81.3 ± 1.2 | 28.7 ± 1 | 15.7 ± 1.1 | –
OCc1ccc(-[n+]2ccn(CC(O)c3ccccc3)c2)cc1 (stereo not drawn) [L5, N-[4-(hydroxymethyl)phenyl]-N’-[(2-hydroxy-2-phenyl)ethyl]-imidazolium bromide] | – | – | – | – | – | – | IC50 ([1]; Homo sapiens, MCF7, 72 h): > 200 µM; IC50 ([2]; Homo sapiens, HEK293): > 200 µM; IC50 ([3]; Homo sapiens, Ishikawa): > 200 µM; IC50 ([4]; Homo sapiens, MCF-10A): > 200 µM; IC50 ([5]; Homo sapiens, MDA-MB-231, 72 h): > 200 µM; IC50 ([6]; Homo sapiens, HeLa): > 200 µM
OC(Cn1cc[n+](CC(O)c2ccccc2)c1)c1ccccc1 (stereo not drawn) [L6] | – | – | – | – | – | – | IC50 ([1]; Homo sapiens, MCF7, 72 h): > 200 µM; IC50 ([2]; Homo sapiens, HEK293): > 200 µM; IC50 ([3]; Homo sapiens, Ishikawa): > 200 µM; IC50 ([4]; Homo sapiens, MCF-10A): > 200 µM; IC50 ([5]; Homo sapiens, MDA-MB-231, 72 h): > 200 µM; IC50 ([6]; Homo sapiens, HeLa): > 200 µM
C[n+]1cn(CC(O)c2ccccc2)c(Cl)c1Cl (stereo not drawn) [L7] | > 200 | > 200 | > 200 | > 200 | > 200 | > 200 | –
O=c1c(O)c(-c2ccc(O)c(O)c2)oc2cc(O)cc(O)c12 [Quercetin, reference compound] | – | – | – | – | – | – | increase of the Hek-293 cells viability vs AuL7 alone ([2]; pre-treatment for 4 h with Quercetin (at 50 μM), then AuL7): about 1.5 fold
CC1=CC(=O)c2ccccc2C1=O [menadione, reference compound] | – | – | – | – | – | – | ROS production (DCF green fluorescence) (MDA-MB-231 cells [7]): increased ROS production
CC(=O)O[C@H]1C(=O)[C@@]2(C)[C@H]([C@H](OC(=O)c3ccccc3)[C@]3(O)C[C@H](OC(=O)[C@H](O)[C@@H](NC(=O)c4ccccc4)c4ccccc4)C(C)=C1C3(C)C)[C@]1(OC(C)=O)CO[C@@H]1C[C@@H]2O [paclitaxel] | – | – | – | – | – | – | effect on microtubule network, MDA-MB-231 (MDA-MB-231 cells [8]): microtubules non-reversible polymerization; effect on microtubule network, HeLa (HeLa cells): microtubules non-reversible polymerization; final optical density value at 350 nm (OD350) (tubulin; 37 °C): about 0.51
CC[C@]1(O)C[C@@H]2CN(CCc3c([nH]c4ccccc34)[C@@](C(=O)OC)(c3cc4c(cc3OC)N(C)[C@H]3[C@@](O)(C(=O)OC)[C@H](OC(C)=O)[C@]5(CC)C=CCN6CC[C@]43[C@@H]65)C2)C1 [vinblastine, reference compound] | – | – | – | – | – | – | effect on microtubule network, MDA-MB-231 (MDA-MB-231 cells [8]): microtubules disorganization; effect on microtubule network, HeLa (HeLa cells): microtubules disorganization; effect on tubulin-polymerization reaction (tubulin): tubulin-polymerization inhibition; time to reach the steady state of polymerization curve (tubulin; 37 °C): about 40 min; final optical density value at 350 nm (OD350) (tubulin; 37 °C): less than the half of the vehicle reaction

From PMC7281280, “Is the Way to Fight Cancer Paved with Gold? Metal-Based Carbene Complexes with Multiple and Fascinating Biological Features” (Pharmaceuticals, 2020)
